Experimental data as given in patent US11046722B2, “Sulphated disaccharides for the treatment of neuropathic pain” (BIOIBERICA, S.A.U., priority 2017, dated 2021).

Experiments:
[1] = tested on: mechanical allodynia induced in mice by intraplantar capsaicin injection; test: Mechanical allodynia induced by intraplantar capsaicin injection (von Frey, latency to paw withdrawal); format: in vivo
Description: Thus, in Example 1, an experimental trial is described performed on mice with mechanical allodynia induced by intraplantar capsaicin injection, according to the model described in the article by Entrena et al., Antagonism by haloperidol and its metabolites of mechanical hypersensitivity induced by intraplantar capsaicin in mice: role of sigma-1 receptors, Psychopharmacology, 2009, 205, 21-33. This trial is based on hypersensitivity induced in the mice by means of injecting capsaicin in the right hind paw. The allodynia is quantified by measuring the decrease in latency time in the hypersensitized mice until paw withdrawal, when a mechanical stimulus is applied to it.
For this trial, 6 groups of mice were used with between 8 and 12 animals in each group. […] 15 minutes after the injection, different mechanical stimuli were applied with a von Frey filament with a force of 0.5 g in an esthesiometer, and the values of the latency time until paw withdrawal were recorded. […]
In order to quantify the anti-allodynic effect, a value of 100% allodynia was assigned to the latency time of the animals injected with capsaicin and without pharmacological treatment (only treated with the vehicle). […]

[2] = tested on: mechanical allodynia induced in mice by chronic ligation of the sciatic nerve; test: Mechanical allodynia produced by chronic ligation of the sciatic nerve (von Frey, 50% pain threshold); format: in vivo; details: 7 days after surgery, 45 minutes before measurement
Description: In Example 2, an experimental trial on mechanical allodynia induced in mice by chronic ligation of the sciatic nerve is described, according to the model described in the article by Decosterd et al., Spared nerve injury: an animal model of persistent peripheral neuropathic pain, Pain, 2000, 149-158. This model is based on causing mechanical allodynia in mice by means of ligation of two of the three branches of the sciatic nerve (tibial and peroneal), leaving the sural branch intact. The allodynia induced in this manner is quantified by the reduction observed in the threshold force that is necessary to apply in order to produce animal's paw withdrawal in those subjected to the ligation. As described in such example, it is observed that the administration of different doses of compound Ic is effective in reversing the allodynia induced in this model (FIGS. 1 and 2).
For this trial, groups of 6 to 7 mice were used for each group. Mechanical allodynia was induced in the animals (except for the control group) by chronic ligation of the sciatic nerve, and the allodynia induced in this manner was registered 7 days after performing the surgery.
Compound Ic was administered at different doses (3, 30 and 60 mg/Kg) as well as only saline solution as a control, and the positive control gabapentin (40 mg/Kg). The products were administered by stomach tube 45 minutes before performing the allodynia measurement, which was quantified using von Frey filaments, according to the force threshold necessary to cause paw withdrawal of the animal.
The results are summarized in FIG. 2, where the Y-axis represents half of the threshold force that is necessary to apply in order to cause paw withdrawal (50% pain threshold, in grams, g) and the X-axis indicates the different groups and treatments carried out. […]
An analogous test was carried out in which several doses of compound Ic (30, 60 and 120 mg/Kg) and gabapentin (40 mg/Kg) were administered, and the 50% pain threshold was measured at different times after the administration in order to evaluate the kinetic of the pharmacological effect and the total duration of the anti-allodynic effect. […]

In the case of `CO[C@H]1O[C@H](COS(=O)(=O)[O-])[C@@H](OS(=O)(=O)[O-])[C@H](O[C@@H]2O[C@H](C(=O)[O-])[C@@H](O)[C@H](O)[C@H]2O)[C@H]1NC(C)=O.[Na+].[Na+].[Na+]` [Compound Ic, methyl 2-acetamido-2-desoxi-3-O-(β-D-glucopyranosyluronic acid)-4,6-di-O-sulfo-α-D-glucopyranoside trisodium salt], the anti-allodynic effect ([1]; capsaicin 1 μg intraplantar, 3, 10 and 30 mg/Kg by gavage 45 minutes before the trial, effect dose-dependent) is reported as “notable anti-allodynic effect”, the “reduction of the allodynia” value ([1]; capsaicin, highest dose 30 mg/Kg by gavage 45 minutes before the trial, 100% = capsaicin + vehicle) is reported as “more than 50%” and the anti-allodynic effect ([2]; 3 mg/Kg by stomach tube) is reported as “notable”. For the same compound, the anti-allodynic effect ([2]; 30 mg/Kg by stomach tube) was “notable”, the analgesic effect ([2]; 60 mg/Kg by stomach tube) was “achieved an analgesic effect” and the “reversal of the allodynia” value ([2]; 60 mg/Kg by stomach tube) was “total reversal of the allodynia”.
